Reference: PMC3168433, “Drosophila KCNQ Channel Displays Evolutionarily Conserved Electrophysiology and Pharmacology with Mammalian KCNQ Channels” (PLoS ONE, 2011)

Experiments:
Type in all cases: cell-based
KCNQ2/3 [1] = molecular target: T1, KCNQ2/3 (Rattus norvegicus, UniProt O88943+O88944); assay: whole-cell patch clamp, HEK cells, current at +[…] mV; conditions: HEK293
T1 construct: rat KCNQ2 and KCNQ3 cDNAs in pcDNA3.1 co-transfected 1:1 in HEK cells; heterotetramer

dKCNQ [2] = molecular target: T2, dKCNQ (Drosophila melanogaster, UniProt Q5PXF9); assay: as above
T2 construct: gene KCNQ; full-length cDNA RE26469 in pIRES2-EGFP, expressed in HEK cells; homotetramer
T2 sequence (Q5PXF9 1-808): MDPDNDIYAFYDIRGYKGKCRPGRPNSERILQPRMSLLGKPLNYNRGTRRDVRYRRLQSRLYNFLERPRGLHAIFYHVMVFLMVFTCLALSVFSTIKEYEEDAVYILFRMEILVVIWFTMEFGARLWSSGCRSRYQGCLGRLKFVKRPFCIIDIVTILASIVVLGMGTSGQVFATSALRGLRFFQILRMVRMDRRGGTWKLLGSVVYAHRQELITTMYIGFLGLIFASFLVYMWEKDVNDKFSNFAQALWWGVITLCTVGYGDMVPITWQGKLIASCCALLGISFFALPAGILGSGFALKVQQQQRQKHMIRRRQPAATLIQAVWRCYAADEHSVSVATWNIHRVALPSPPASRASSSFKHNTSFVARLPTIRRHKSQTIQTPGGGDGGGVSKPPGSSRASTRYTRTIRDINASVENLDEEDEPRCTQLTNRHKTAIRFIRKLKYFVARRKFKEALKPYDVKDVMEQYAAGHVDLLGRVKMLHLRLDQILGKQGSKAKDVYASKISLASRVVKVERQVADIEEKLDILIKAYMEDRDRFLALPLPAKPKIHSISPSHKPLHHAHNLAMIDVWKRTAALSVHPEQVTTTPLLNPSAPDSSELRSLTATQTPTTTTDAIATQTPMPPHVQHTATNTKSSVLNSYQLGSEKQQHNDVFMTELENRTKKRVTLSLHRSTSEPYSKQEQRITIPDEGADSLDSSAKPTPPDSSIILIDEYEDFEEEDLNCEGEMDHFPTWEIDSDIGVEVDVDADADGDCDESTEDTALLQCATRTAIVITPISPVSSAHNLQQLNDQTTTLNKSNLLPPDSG

KCNQ1/KCNE1 = molecular target: T3, KCNQ1/KCNE1 (Homo sapiens, UniProt P51787); assay: as above; conditions: HEK293
T3 construct: human KCNQ1 co-expressed with KCNE1 (cDNA 1:2) in HEK cells, pIRES1-CD8; with Potassium voltage-gated channel subfamily E member 1

dKCNQ [3] = molecular target: T2, dKCNQ; assay: as above; conditions: HEK293
KCNQ2/3 [4] = molecular target: T1, KCNQ2/3; assay: whole-cell patch clamp, HEK cells, current at −[…] mV; conditions: opener; at −30 mV; activation V0.5 shifted by −24 mV; pH 7.2; room temperature

T1 sequence (O88943 whole entry): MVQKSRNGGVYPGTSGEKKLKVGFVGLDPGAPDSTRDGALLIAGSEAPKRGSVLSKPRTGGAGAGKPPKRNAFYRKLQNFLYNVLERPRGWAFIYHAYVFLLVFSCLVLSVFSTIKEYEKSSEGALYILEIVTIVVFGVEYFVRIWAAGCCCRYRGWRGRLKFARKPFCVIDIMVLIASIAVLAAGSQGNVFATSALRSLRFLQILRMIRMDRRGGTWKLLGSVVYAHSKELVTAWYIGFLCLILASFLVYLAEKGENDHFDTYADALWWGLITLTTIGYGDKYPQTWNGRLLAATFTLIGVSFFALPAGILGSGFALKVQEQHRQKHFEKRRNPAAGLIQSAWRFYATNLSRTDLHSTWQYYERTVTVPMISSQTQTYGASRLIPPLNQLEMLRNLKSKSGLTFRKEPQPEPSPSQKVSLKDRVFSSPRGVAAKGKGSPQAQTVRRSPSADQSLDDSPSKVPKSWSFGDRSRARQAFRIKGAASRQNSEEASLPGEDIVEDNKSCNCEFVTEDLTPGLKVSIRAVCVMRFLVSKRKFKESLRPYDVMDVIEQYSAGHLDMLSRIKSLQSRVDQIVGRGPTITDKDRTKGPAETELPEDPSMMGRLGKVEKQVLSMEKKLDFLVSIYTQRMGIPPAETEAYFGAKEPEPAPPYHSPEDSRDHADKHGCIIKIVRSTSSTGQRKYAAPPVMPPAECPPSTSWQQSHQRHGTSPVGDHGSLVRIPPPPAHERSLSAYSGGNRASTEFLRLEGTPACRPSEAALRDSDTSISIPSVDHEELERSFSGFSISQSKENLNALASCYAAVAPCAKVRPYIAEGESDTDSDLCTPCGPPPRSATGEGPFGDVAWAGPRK
T1 sequence (O88944 whole entry): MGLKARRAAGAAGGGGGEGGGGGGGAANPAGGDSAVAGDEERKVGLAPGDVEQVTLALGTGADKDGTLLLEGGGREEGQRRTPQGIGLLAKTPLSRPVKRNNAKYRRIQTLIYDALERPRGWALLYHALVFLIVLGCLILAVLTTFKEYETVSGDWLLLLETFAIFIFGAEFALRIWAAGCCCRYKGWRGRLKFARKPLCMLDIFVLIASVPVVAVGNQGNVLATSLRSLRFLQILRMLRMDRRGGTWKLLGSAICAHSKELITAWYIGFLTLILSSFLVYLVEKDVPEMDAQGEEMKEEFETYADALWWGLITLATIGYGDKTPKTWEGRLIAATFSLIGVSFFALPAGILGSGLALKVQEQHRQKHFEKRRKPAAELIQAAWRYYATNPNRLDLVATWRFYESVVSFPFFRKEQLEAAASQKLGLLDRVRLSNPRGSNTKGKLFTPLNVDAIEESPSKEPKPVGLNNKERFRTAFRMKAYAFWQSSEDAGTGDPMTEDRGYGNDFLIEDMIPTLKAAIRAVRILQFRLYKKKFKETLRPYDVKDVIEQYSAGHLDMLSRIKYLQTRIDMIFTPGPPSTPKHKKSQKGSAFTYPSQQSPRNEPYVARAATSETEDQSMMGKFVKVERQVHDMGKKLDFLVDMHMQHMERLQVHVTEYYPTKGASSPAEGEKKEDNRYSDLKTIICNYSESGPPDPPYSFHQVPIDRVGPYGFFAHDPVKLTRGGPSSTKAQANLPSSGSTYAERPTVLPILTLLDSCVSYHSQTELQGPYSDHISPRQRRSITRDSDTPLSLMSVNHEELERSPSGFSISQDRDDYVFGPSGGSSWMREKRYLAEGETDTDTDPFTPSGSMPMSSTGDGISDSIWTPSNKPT
T3 sequence (P51787 whole entry): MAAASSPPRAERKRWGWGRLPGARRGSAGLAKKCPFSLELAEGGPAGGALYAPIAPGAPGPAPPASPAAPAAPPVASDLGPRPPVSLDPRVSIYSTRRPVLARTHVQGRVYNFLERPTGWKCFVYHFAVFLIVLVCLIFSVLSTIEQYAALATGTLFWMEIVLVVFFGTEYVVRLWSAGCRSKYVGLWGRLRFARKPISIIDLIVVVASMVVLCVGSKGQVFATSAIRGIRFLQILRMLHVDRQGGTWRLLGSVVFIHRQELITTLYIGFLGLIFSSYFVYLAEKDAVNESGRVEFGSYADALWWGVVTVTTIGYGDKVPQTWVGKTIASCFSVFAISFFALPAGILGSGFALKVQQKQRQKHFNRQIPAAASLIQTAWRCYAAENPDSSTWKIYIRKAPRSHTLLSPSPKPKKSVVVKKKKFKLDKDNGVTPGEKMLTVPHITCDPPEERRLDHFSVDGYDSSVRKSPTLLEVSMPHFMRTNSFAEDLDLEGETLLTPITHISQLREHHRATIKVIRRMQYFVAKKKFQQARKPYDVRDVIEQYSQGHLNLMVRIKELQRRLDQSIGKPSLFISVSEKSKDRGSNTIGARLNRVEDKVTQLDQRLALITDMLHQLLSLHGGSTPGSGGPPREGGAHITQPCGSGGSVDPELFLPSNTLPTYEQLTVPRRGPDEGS

SMILES	inhibition at 10 µM (KCNQ2/3 [1])	IC50 (dKCNQ [2])	inhibition at 10 µM (KCNQ1/KCNE1)	inhibition at 10 µM (dKCNQ [3])	% current enhancement at 10 μM (KCNQ2/3 [4])
O=C1c2ccccc2C(Cc2ccncc2)(Cc2ccncc2)c2ccccc21 [XE991, 10,10-bis(4-Pyridinylmethyl)-9(10H)-anthracenone]	~50%	5.5 ± 1.1 µM	–	–	–
CCS(=O)(=O)N(C)C1c2cc(C#N)ccc2OC(C)(C)C1O (stereo not shown) [chromanol 293B]	–	13 ± 3.6 µM	~56%	–	–
O=C1N(c2ccccc2)c2ccccc2C1(Cc1ccncc1)Cc1ccncc1 [linopirdine]	~40%	–	–	~30%	–
CCOC(=O)Nc1ccc(NCc2ccc(F)cc2)cc1N [retigabine]	–	–	–	–	~ 35%
